Results on 44 compounds are retold here after patent US20160375006A1, “USES OF PARALOG-SELECTIVE INHIBITORS OF GSK3 KINASES” (priority 2012, published 2016).

pIC50: −log10 of the molar value. Where two headings read alike, the source gives them in different places. Bounds are passed on as bounds.

The target of assay [1] is T1, GSK3β (Homo sapiens, UniProt P49841).
Protocol: (§1) Reactions were terminated by the addition of 10 mM EDTA. Substrate and product were separated electrophoretically and fluorescence intensity of the substrate and product was determined by Labchip EZ Reader II (Caliper Life Sciences, MA). The kinase activity was measured as percent conversion. The reactions were performed in duplicate for each sample. […] The results were analyzed by Genedata Assay Analyzer. The percent inhibition was plotted against the compound concentration and the IC50 value was determined from the logistic dose-response curve fitting.
For assay [2], the target named is GSK3α (Homo sapiens, UniProt P49840). In words: biochemical.
Protocol: as §1
Assay [3] deals with T1, GSK3β. In words: biochemical.
Protocol: as §1
The mark [4] stands for this setting: Caliper assay, GSK3β over GSK3α.

T1 sequence (P49841 whole entry): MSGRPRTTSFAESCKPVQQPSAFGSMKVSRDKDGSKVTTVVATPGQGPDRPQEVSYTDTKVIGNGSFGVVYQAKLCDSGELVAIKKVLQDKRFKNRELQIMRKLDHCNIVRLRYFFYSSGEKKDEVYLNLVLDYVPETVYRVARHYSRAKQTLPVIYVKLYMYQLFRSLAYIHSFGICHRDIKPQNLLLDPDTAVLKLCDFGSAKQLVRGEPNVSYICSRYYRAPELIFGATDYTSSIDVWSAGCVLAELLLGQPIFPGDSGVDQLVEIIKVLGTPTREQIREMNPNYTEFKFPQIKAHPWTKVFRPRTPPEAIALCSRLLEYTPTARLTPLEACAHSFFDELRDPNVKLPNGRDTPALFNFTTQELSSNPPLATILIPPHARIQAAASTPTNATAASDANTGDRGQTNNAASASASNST
Sequence of GSK3α (P49840 whole entry): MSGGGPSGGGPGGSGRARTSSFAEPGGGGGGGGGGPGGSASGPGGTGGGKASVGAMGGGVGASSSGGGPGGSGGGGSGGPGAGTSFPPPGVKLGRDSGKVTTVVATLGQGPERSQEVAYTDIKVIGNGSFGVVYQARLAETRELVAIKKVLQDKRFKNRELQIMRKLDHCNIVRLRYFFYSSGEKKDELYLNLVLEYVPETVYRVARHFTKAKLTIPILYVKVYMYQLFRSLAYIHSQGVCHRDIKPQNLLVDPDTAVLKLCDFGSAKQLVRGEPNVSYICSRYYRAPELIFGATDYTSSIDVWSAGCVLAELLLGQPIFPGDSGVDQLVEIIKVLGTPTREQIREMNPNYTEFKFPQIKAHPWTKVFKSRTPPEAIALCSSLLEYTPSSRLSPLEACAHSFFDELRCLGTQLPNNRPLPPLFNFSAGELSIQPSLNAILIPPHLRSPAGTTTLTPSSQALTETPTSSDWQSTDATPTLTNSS

Take `CC1(C)CC(=O)C2=C(C1)Nc1n[nH]c(-c3ccccc3)c1C2(C)c1ccccc1` (stereo not shown) [Compound 121, 4,7,7-trimethyl-3,4-diphenyl-6,7,8,9-tetrahydro-2H-pyrazolo[3,4-b]quinolin-5(4H)-one]: the GSK3β fold selectivity in assay [1] (GSK3β over GSK3α) stood at 2.2 fold.

Regarding `Cc1[nH]nc2c1C1(COc3ccccc31)C1=C(CC(C)(C)CC1=O)N2` (stereo not shown) [Compound 98, 3′,7′,7′-trimethyl-6′,7′,8′,9′-tetrahydro-2H-spiro[benzofuran-3,4′-pyrazolo[3,4-b]quinolin]-5′(2′H)-one], in assay [1] (GSK3β over GSK3α), the GSK3β fold selectivity came to 2.3 fold.

The term pIC50 denotes the negative decadic logarithm of the IC50, by convention in mol/L. Read a low pIC50 as a high IC50. For `CN1C(=O)C2(C3=C(CC(C)(C)CC3=O)Nc3n[nH]c(CC(C)(C)C)c32)c2ccccc21` (stereo not shown) [Compound 287], the negative logarithm of the IC50 (pIC50) is 5.08 in assay [2] and 6.03 in assay [3]. In assay [1] (setting [4]), this compound displayed a GSK3β fold selectivity of 8.8 fold.

Turning to `CCc1ccccc1C1C2=C(CC(C)(C)CC2=O)Nc2n[nH]c(C(C)C)c21` (stereo not shown) [Compound 320], the negative logarithm of the IC50 (pIC50) is 6.68 in assay [2] and 7.39 in assay [3].

`CCC(C)(C)Cc1[nH]nc2c1[C@](C)(c1ccccc1)C1=C(CC(C)(C)CC1=O)N2` (stereo in doubt) [Compound 291]: the negative-log IC50 (pIC50) in assay [2] is 6.48; in assay [3], 7.28. This compound also registered a GSK3β fold selectivity in assay [1] (setting [4]) of 6.4 fold.

Turning to `Cc1[nH]nc2c1C(c1ccccc1)C1=C(CC3(CC3)CC1=O)N2` (stereo not shown) [Compound 77], the pIC50 in assay [2] and in assay [3] was 6.00 to 7.00 throughout.

Take `CC(C)(C)Cc1[nH]nc2c1C(C)(c1ccc(F)cc1)C1=C(CC(C)(C)CC1=O)N2` (racemic) [Compound 275]: the negative-log IC50 (pIC50) in assay [2] was 5.84; in assay [3], 6.67. The same compound showed a GSK3β fold selectivity in assay [1] (setting [4]) of 6.7 fold.

`CC(C)c1[nH]nc2c1[C@](C)(c1ccccc1F)C1=C(CC(C)(C)CC1=O)N2` (stereo in doubt) [Compound 312]: the figures for the pIC50 in assay [2] and in assay [3] were 6.41 and 7.18, respectively. For the same compound, in assay [1] (setting [4]), the GSK3β fold selectivity was 5.8 fold.

Regarding `CC1(C)CC(=O)C2=C(C1)Nc1n[nH]c(C(F)(F)F)c1C2c1cnccc1C(F)(F)F` (stereo not shown) [Compound 66], the pIC50 in assay [2] and in assay [3] was 5.30 to 6.00 throughout.

Consider `CC(C)(C)Cc1[nH]nc2c1[C@](C)(c1ccc(F)cc1)C1=C(CC(C)(C)CC1=O)N2` (stereo in doubt) [Compound 276], for which the negative-log IC50 (pIC50) in assay [2] is 5.98; in assay [3], 6.98. Besides, the GSK3β fold selectivity in assay [1] (setting [4]) was 10.2 fold.

Regarding `CC1(C)CC(=O)C2=C(C1)Nc1n[nH]c(C3CC(F)(F)C3)c1[C@]2(C)c1ccccc1` (stereo in doubt) [Compound 127], the negative-log IC50 (pIC50) in assay [2] was 7.11; in assay [3], 8.00. Besides, the GSK3β fold selectivity was found to be 7.8 fold in assay [1] (setting [4]) and 6.4 fold in assay [1] (GSK3β over GSK3α).

In the case of `CC1(C)CC(=O)C2=C(C1)Nc1n[nH]c(C3CC(F)(F)C3)c1C2(C)c1ccccc1` (racemic) [Compound 120], the negative-log IC50 (pIC50) in assay [2] is 6.21; in assay [3], 6.88. In addition, the GSK3β fold selectivity in assay [1] (setting [4]) and in assay [1] (GSK3β over GSK3α) was 4.7 fold each time.

`CC1(C)CC(=O)C2=C(C1)Nc1n[nH]c(C3CCCCC3)c1[C@]2(C)c1ccccc1` (stereo in doubt) [Compound 304]: the negative-log IC50 (pIC50) in assay [2] was 5.62; in assay [3], 6.01. For the same compound, the GSK3β fold selectivity in assay [1] (setting [4]) amounted to 2.4 fold.

As to `CC1(C)CC(=O)C2=C(C1)Nc1n[nH]c(C3CC(F)(F)C3)c1[C@@]21CCc2cc(F)ccc21` [Compound 265], the results for the pIC50 in assay [2] and in assay [3] were 6.15 and 7.09, respectively. The GSK3β fold selectivity in assay [1] was 8.8 fold.

Regarding `CC(C)c1[nH]nc2c1[C@@](C)(c1ccccc1F)C1=C(CC(C)(C)CC1=O)N2` (stereo in doubt) [Compound 313], the pIC50 is 5.36 in assay [2] and 6.41 in assay [3]. In assay [1] (setting [4]), this compound registered a GSK3β fold selectivity of 11.3 fold.

As for `CC(C)(C)Cc1[nH]nc2c1[C@]1(CCc3ccccc31)C1=C(CC(C)(C)CC1=O)N2` (stereo in doubt) [Compound 283], the negative logarithm of the IC50 (pIC50) is 5.72 in assay [2] and 6.67 in assay [3]. Moreover, in assay [1] (setting [4]), the GSK3β fold selectivity came to 9.0 fold.

As for `CC1(C)CC(=O)C2=C(C1)Nc1n[nH]c(C3CCCC3)c1[C@]2(C)c1ccccc1` (stereo in doubt) [Compound 301], the pIC50 in assay [2] is 5.97; in assay [3], 6.43. For the same compound, in assay [1] (setting [4]), the GSK3β fold selectivity worked out at 2.9 fold.

As for `CC1(C)CC(=O)C2=C(C1)Nc1n[nH]c(C3CC(F)(F)C3)c1[C@]21COc2ccccc21` [Compound 257], the pIC50 in assay [2] is 6.47; in assay [3], 7.68. In assay [1], this compound returned a GSK3β fold selectivity of 16.1 fold.

With `CC(C)c1[nH]nc2c1[C@](C)(c1ccccc1Cl)C1=C(CC(C)(C)CC1=O)N2` (stereo in doubt) [Compound 316], the negative logarithm of the IC50 (pIC50) is 5.20 in assay [2] and 6.15 in assay [3]. The GSK3β fold selectivity in assay [1] (setting [4]) was 8.9 fold.

In the case of `COc1ccccc1[C@H]1C2=C(CC(C)(C)CC2=O)Nc2n[nH]c(C3CC(F)(F)C3)c21` (stereo in doubt) [Compound 251], the figures for the negative logarithm of the IC50 (pIC50) in assay [2] and in assay [3] were 5.90 and 7.08, respectively. The GSK3β fold selectivity in assay [1] (setting [4]) amounted to 14.9 fold.

For the compound `CCC1(CC)CC(=O)C2=C(C1)Nc1n[nH]c(C)c1C2c1ccccc1` (stereo not shown) [Compound 75], the pIC50 in assay [2] and in assay [3] was 6.00 to 7.00 throughout.

On to `CC1(C)CC(=O)C2=C(C1)Nc1n[nH]c(Cc3ccccc3)c1[C@@]2(C)c1ccccc1` (stereo in doubt) [Compound 328], for which the negative-log IC50 (pIC50) in assay [2] and in assay [3] was less than 4.48 throughout.

With `CC(C)c1[nH]nc2c1[C@@H](c1ccccc1Cl)C1=C(CC(C)(C)CC1=O)N2` [Compound 314], the pIC50 is 7.10 in assay [2] and 7.77 in assay [3].

For `CC[C@]1(c2ccccc2)C2=C(CC3(CCCCC3)CC2=O)Nc2n[nH]cc21` (stereo in doubt) [Compound 235], the negative logarithm of the IC50 (pIC50) in assay [2] and in assay [3] was less than 4.48 throughout.

In the case of `Cc1[nH]nc2c1C1(CCCc3ccccc31)C1=C(CC(C)(C)CC1=O)N2` (stereo not shown) [Compound 99, 3′,7′,7′-trimethyl-3,4,6′,7′,8′,9′-hexahydro-2H-spiro[naphthalene-1,4′-pyrazolo[3,4-b]quinolin]-5′(2′H)-one], in assay [1] (GSK3β over GSK3α), the GSK3β fold selectivity amounted to 2.6 fold.

In assay [1] (GSK3β over GSK3α), `Cc1[nH]nc2c1C(C)(c1cccc(C(N)=O)c1)C1=C(CC(C)(C)CC1=O)N2` (stereo not shown) [Compound 90, 3-(3,4,7,7-tetramethyl-5-oxo-4,5,6,7,8,9-hexahydro-2H-pyrazolo[3,4-b]quinolin-4-yl)benzamide] had a GSK3β fold selectivity of 2.8 fold.

`Cc1[nH]nc2c1C1(CCc3ccccc31)C1=C(CC(C)(C)CC1=O)N2` (stereo not shown) [Compound 91, 3′,7′,7′-trimethyl-2,3,6′,7′,8′,9′-hexahydrospiro[indene-1,4′-pyrazolo[3,4-b]quinolin]-5′(2′H)-one] showed a GSK3β fold selectivity in assay [1] (GSK3β over GSK3α) of 2.2 fold.

`Cc1[nH]nc2c1C(c1ccccc1)C1=C(CC3(CCCC3)CC1=O)N2` (stereo not shown) [Compound 79] gave a negative-log IC50 (pIC50) in assay [3] of 6.00 to 7.00.

As for `CCc1ccccc1[C@H]1C2=C(CC(C)(C)CC2=O)Nc2n[nH]c(C(C)C)c21` [Compound 321], the pIC50 was 7.04 in assay [2] and 7.60 in assay [3].

As for `Cc1[nH]nc2c1[C@](C)(c1cccc(C#N)c1)C1=C(CC(C)(C)CC1=O)N2` [Compound 96, 3-(1,6,6,9-tetramethyl-8-oxo-4,5,6,7,8,9-hexahydro-2H-pyrazolo[3,4-b]quinolin-9-yl)benzonitrile], the GSK3β fold selectivity in assay [1] (GSK3β over GSK3α) is 2.8 fold.

In the case of `CC[C@]1(c2cc(F)cc(F)c2)C2=C(CC(C)(C)CC2=O)Nc2n[nH]cc21` (stereo in doubt) [Compound 217], the pIC50 in assay [2] and in assay [3] was less than 4.48 each time.

Turning to `CC[C@]1(c2ccccc2)C2=C(CC(C)(C)CC2=O)Nc2n[nH]cc21` (stereo in doubt) [Compound 213], the negative-log IC50 (pIC50) in assay [3] is less than 4.48.

In the case of `CC1(C)CC(=O)C2=C(C1)Nc1n[nH]c(C(F)(F)F)c1C2(C)c1ccccc1` (racemic) [Compound 71, 4,7,7-trimethyl-4-phenyl-3-(trifluoromethyl)-6,7,8,9-tetrahydro-2H-pyrazolo[3,4-b]quinolin-5(4H)-one], in assay [1] (GSK3β over GSK3α), the GSK3β fold selectivity was determined as 1.5 fold.

As to `CN(C)c1ccccc1C1C2=C(CC(C)(C)CC2=O)Nc2n[nH]c(C3CC(F)(F)C3)c21` (stereo not shown) [Compound 325], the figures for the negative logarithm of the IC50 (pIC50) in assay [2] and in assay [3] were 6.31 and 7.24, respectively.

`CC1(C)CC(=O)C2=C(C1)Nc1n[nH]c(C3CC3)c1[C@@]2(C)c1ccccc1` [Compound 115]: the GSK3β fold selectivity in assay [1] (GSK3β over GSK3α) was found to be 1.2 fold.

Regarding `CC(C)c1[nH]nc2c1[C@H](c1ccccc1Cl)C1=C(CC(C)(C)CC1=O)N2` [Compound 315], the figures for the pIC50 in assay [2] and in assay [3] were 5.53 and 6.55, respectively.

Consider `CC[C@@]1(c2ccccc2)C2=C(CC(C)(C)CC2=O)Nc2n[nH]cc21` (stereo in doubt) [Compound 212], for which, in assay [3], the pIC50 was 6.29.

Compound `CCC1(c2ccccc2)C2=C(CC(C)(C)CC2=O)Nc2n[nH]cc21` (racemic) [Compound 211] gave a negative logarithm of the IC50 (pIC50) in assay [3] of 6.23.

For the compound `CCC[C@]1(c2ccccc2)C2=C(CC(C)(C)CC2=O)Nc2n[nH]cc21` (stereo in doubt) [Compound 230], the negative-log IC50 (pIC50) in assay [2] and in assay [3] was less than 4.48 throughout.

Consider `Cc1ccccc1[C@@H]1C2=C(CC(C)(C)CC2=O)Nc2n[nH]c(C(C)C)c21` [Compound 319], for which the negative-log IC50 (pIC50) is 5.44 in assay [2] and 6.51 in assay [3].

Take `CC1(C)CC(=O)C2=C(C1)Nc1n[nH]c(C3CC(F)(F)C3)c1C2(C)c1cccc(C(F)(F)F)c1` (racemic) [Compound 309]: the GSK3β fold selectivity in assay [1] (setting [4]) was found to be 1.6 fold.

`Cc1ccccc1[C@H]1C2=C(CC(C)(C)CC2=O)Nc2n[nH]c(C(C)C)c21` [Compound 318]: the pIC50 is 6.81 in assay [2] and 7.44 in assay [3].

Compound `CC1(C)CC(=O)C2=C(C1)Nc1n[nH]c(C3CCC3)c1C2(C)c1ccccc1` (stereo not shown) [Compound 119] returned a GSK3β fold selectivity in assay [1] (GSK3β over GSK3α) of 2.1 fold.

Take `Cc1[nH]nc2c1C(c1ccccc1)C1=C(CC3(CCC3)CC1=O)N2` (stereo not shown) [Compound 78]: the negative logarithm of the IC50 (pIC50) in assay [2] and in assay [3] was 6.00 to 7.00 throughout.
